“And” between values parts separate entries of the source, which are not always exact repeats. Equal values may be shown once.
How the values were obtained:
[1] = In vitro DPPH free radical scavenging test; assay type: biochemical; design: DPPH Free Radical Scavenging Rate (%v/v): unit not given here; settings: for DPPH Free Radical Scavenging Rate (%): replicate wells; for DPPH Free Radical Scavenging Rate (%v/v): mean ± SD
From the text: The DPPH radical scavenging assay is an in vitro method used to evaluate antioxidant activity. DPPH is a stable free radical in organic solvents and appears purple in methanol or ethanol, with maximum absorption at a wavelength of 517 nm. The DPPH assay is based on the ability of an antioxidant to donate an electron to the DPPH radical, converting its purple color to yellow. The degree of absorbance change at 517 nm corresponds to the extent of the free radical scavenging activity, meaning the stronger the scavenging ability of the antioxidant, the lower the absorbance.
Using ascorbic acid (VC) as a system reference, dilute it with PBS to obtain five concentrations: 12.5, 25, 50, 100, and 200 μg/mL. Perform the test and calculations according to the procedure outlined in 3.3.2. Plot the reference curve with the concentration of the reference substance on the x-axis and the DPPH free radical scavenging rate on the y-axis.
Prepare the samples into the respective concentrations of test solutions. Prepare the reaction system by adding the specified amount of each reagent mentioned in Table 1, mix thoroughly. For each concentration, set up three replicate wells and one blank control well.
The reaction system is placed at room temperature and allowed to react in the dark for 30 minutes. After the reaction is complete, the absorbance (OD value) is measured at 515 nm. The formula to calculate the scavenging rate of the sample against DPPH free radicals is as follows:
[formula] [formula] • Where: • C1=Absorbance value of the blank with DPPH • C2=Absorbance value of the blank without DPPH • T1=Absorbance value of the sample with DPPH • T2=Absorbance value of the sample without DPPH

[2] = Stability test under light and temperature, content by HPLC-DAD; assay type: physicochemical
Experimental: To compare the stability of Retinyl-trans-4-tert-Butylcyclohexanol and retinol […] under different conditions.
A certain amount of retinol and Retinyl-trans-4-tert-Butylcyclohexanol is taken and placed under conditions of light exposure, 4° C., 25° C., 45° C., and 50° C. for 28 days. Samples are periodically collected to determine their content and examine the influence of light and temperature on their stability.
High-Performance Liquid Chromatography with Diode Array Detection (HPLC-DAD), Electronic Balance (precision of 0.01 mg), Chromatographic Column (Welch Ultimate series XB-C18 column, 250 mm*4.6 mm, 5 μm), Several volumetric flasks.
(§1) Accurately weigh approximately 0.1g of Retinyl-trans-4-tert-Butylcyclohexanol samples obtained under conditions of light exposure, 4° C., 25° C., 45° C., and 50° C. into a 100 mL brown volumetric flask. Add an appropriate amount of acetonitrile while avoiding light, ultrasonicate, dilute to the mark, shake well, and prepare two parallel samples for each condition.
as §1, with “0.1 g” for “0.1g”, “retinol” for “Retinyl-trans-4-tert-Butylcyclohexanol”
Operate according to the procedures for high-performance liquid chromatography (HPLC) usage and maintenance: • I) Run the blank solvent, inject 2 times, record the chromatogram for up to 30 minutes; • II) Run at least 3 injections of the control solution 1, record the chromatogram for up to 30 minutes; • III) Run the control solution 2, inject 2 times, record the chromatogram for up to 30 minutes; • IV) Inject 2 samples of the test solution, record the chromatogram for up to 30 minutes; • V) Adjust the chromatogram scale, integrate, and print. […]

HaCat cells = assay: Intracellular ROS scavenging test in UVB-irradiated HaCat cells; assay type: cell-based, human; settings: UVB 20 mJ/cm2, 24 hours incubation, vs UVB control, p<0.001
Experimental: Among these factors, UV radiation stands as the most significant contributor. Skin exposed to UV radiation generates an excess of reactive oxygen species (ROS) within cells, triggering the expression of genes related to aging, instigating an inflammatory cascade, and reducing the expression of elastin and collagen proteins, leading to manifestations of photoaging like skin laxity and wrinkles. Photoaging predominantly occurs in the dermis.
UVB irradiation is administered to immortalized human keratinocytes (HaCat cells) to induce intracellular reactive oxygen species (ROS) generation. The UVB dose applied to HaCat cells is 20 mJ/cm2. Following the UVB treatment, varying concentrations of Retinyl 4-t-Butylcyclohexanol test samples are added to the cells and incubated for 24 hours. ROS levels within the cells are assessed using a ROS detection kit.
Graph Pad Prism was used for statistical plotting, and the results were presented as Mean±SD. Statistical analysis was conducted using the t-test. A significance level of p<0.05 was considered statistically significant, where *p<0.05, ** p<0.0 1 (0.005<** p<0.01), and *** p<0.001, indicating increased significance as the p-value decreases. When employing the t-test for statistical analysis, the comparison between the UVB control group and the Control group was represented as # (p<0.001 indicated as ###). […]

Content after storage ([2]; 28 days at 4° C.)	Content after storage ([2]; 28 days at room temperature)	Stability compared with retinol ([2]; light exposure, room temperature, 45° C. and 50° C., 28 days, not at 4° C.)	Compound	DPPH Free Radical Scavenging Rate (%) ([1]; concentration 12.5 μg/mL)	DPPH Free Radical Scavenging Rate (%) ([1]; concentration 25 μg/mL)	DPPH Free Radical Scavenging Rate (%) ([1]; concentration 50 μg/mL)	DPPH Free Radical Scavenging Rate (%) ([1]; concentration 100 μg/mL)	DPPH Free Radical Scavenging Rate (%) ([1]; concentration 200 μg/mL)	UVB-induced intracellular ROS levels (HaCat cells)	DPPH free radical scavenging compared to the control group ([1]; concentrations 0.02% to 4%, p<0.001)	DPPH Free Radical Scavenging Rate (%v/v) ([1]; sample concentration 0.02 %v/v)	DPPH Free Radical Scavenging Rate (%v/v) ([1]; sample concentration 0.1 %v/v)	DPPH Free Radical Scavenging Rate (%v/v) ([1]; sample concentration 0.5 %v/v)	DPPH Free Radical Scavenging Rate (%v/v) ([1]; sample concentration 2 %v/v)	DPPH Free Radical Scavenging Rate (%v/v) ([1]; sample concentration 4 %v/v)
			O=C1O[C@H]([C@@H](O)CO)C(O)=C1O [ascorbic acid]	20.55% and 18.55% and 20.32%	30.26% and 31.17% and 32.98%	64.58% and 65.09% and 62.73%	101.32% and 95.11% and 97.07%	101.28% and 92.01% and 108.75%							
above 98%	above 98%	significantly higher	CC1=C(/C=C/C(C)=C/C=C/C(C)=C/C(=O)O[C@H]2CC[C@H](C(C)(C)C)CC2)C(C)(C)CCC1 [Retinyl 4-trans-t-Butylcyclohexanol, retinoic acid trans-4-tert-butylcyclohexyl ester]						effectively reduced	statistically significant increase	9.87 ± 3.44	15.91 ± 1.25	36.72 ± 1.98	48.12 ± 1.07	83.96 ± 1.22

Source: patent US20240391892A1, “A SMALL MOLECULE COMPOUND AND ITS USE AND PREPARATION METHOD” (SHANGHAI COACHCHEM TECHNOLOGY CO., LTD, priority 2022, published 2024)
